Test results: patent US20240239863A1, “GIP RECEPTOR AGONIST AND USE THEREOF” (HANGZHOU ZHONGMEIHUADONG PHARMACEUTICAL CO., LTD., priority 2022, published 2024)
Values belong to the compound of their own block, whether it stands above or below them. Starred links: 1 amine or outer side, 2 acyl side, 3 side chain; linkers in the order of their positions; H or OH if unused. Non-standard residues stand in square brackets, D forms with d. Residues, ends and D or L forms follow the SMILES beside them. Groups on a side chain read outwards from the residue. *: point of attachment. d(γGlu) = O=C(O)[C@@H](CCC(=O)[*:2])N[*:1]; C18 diacid = O=C(O)CCCCCCCCCCCCCCCCC(=O)*; AEEA = NCCOCCOCC(=O)O; Aib = CC(C)(N)C(=O)O

Legend:
hGLP-1R = hGLP-1R (Homo sapiens, UniProt P43220); test: Cell agonistic activity at GLP-1 receptor (Example 7); assay type: cell-based; conditions: read-out: hGLP-1R EC50
hGLP-1R, sequence (P43220 24-463): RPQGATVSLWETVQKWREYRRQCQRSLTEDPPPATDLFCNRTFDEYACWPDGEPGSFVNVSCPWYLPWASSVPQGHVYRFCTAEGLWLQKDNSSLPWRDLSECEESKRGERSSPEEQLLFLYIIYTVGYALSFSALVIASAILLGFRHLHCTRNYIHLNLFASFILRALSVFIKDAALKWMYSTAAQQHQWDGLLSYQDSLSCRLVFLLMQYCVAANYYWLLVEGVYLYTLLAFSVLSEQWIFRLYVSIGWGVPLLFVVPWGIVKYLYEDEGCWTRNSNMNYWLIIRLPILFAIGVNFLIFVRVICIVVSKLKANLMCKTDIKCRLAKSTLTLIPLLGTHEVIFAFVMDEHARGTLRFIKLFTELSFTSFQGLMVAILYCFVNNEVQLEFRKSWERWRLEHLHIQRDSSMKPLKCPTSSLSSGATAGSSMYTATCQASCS

hGIPR = target: T1, hGIPR (Homo sapiens, UniProt P48546); test: HTRF cAMP cell agonistic activity assay, HEK293 stably expressing GIPR (Example 7); assay type: cell-based
T1 construct: expressed in transfected cells; host or cells: HEK293, stably transduced
T1 sequence (P48546 22-466): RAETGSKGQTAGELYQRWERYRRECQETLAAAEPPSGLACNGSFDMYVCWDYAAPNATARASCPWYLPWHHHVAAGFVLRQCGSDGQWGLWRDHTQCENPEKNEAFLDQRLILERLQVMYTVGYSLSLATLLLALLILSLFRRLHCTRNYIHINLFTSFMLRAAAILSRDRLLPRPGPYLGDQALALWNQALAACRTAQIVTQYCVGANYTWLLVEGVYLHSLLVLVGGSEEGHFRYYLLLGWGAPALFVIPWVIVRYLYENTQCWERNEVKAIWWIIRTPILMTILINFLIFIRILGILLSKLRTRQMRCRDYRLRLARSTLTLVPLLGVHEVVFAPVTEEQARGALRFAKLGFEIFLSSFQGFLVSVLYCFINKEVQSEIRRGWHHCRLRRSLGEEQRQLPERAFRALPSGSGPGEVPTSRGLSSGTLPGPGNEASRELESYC
Method: The agonistic activity of the compounds on the receptor was determined using the HTRF kit (purchased from Perkin Elmer). All reagents in the kit were allowed to equilibrate to room temperature before use. A 1× Stimulation Buffer was formulated according to the instruction in the kit for use. […] GIPR cells were digested with trypsin, centrifuged to remove the culture medium. The cells were resuspended in the 1× Stimulation Buffer. After being counted, 9 μL cell dilutions were inoculated into a 384-well plate at 1000 cells/well. 1 μL the 10× compound diluted in step 2 was taken and added to the corresponding test well, wherein 1 μL the 10× initial concentration positive compound was added to the PC hole (Min value), and 1 μL the 10×DMSO buffer (1%) was added to the VC hole (Max value). The plate was centrifuged and incubated at 37 °C for 30 minutes. Eu-cAMP was diluted with Detection buffer to a working concentration, and the diluent was added into the corresponding test well at 5 μL/well. ULight-anti-Camp was diluted with Detection buffer to a working concentration, and the diluent was added into the corresponding test well at 5 μL/well. After being centrifuged, the plate was incubated at room temperature for 1 hour. […] The nonlinear regression method of GraphPad Prism software was used for curve fitting and EC50 calculation.

[1] = parameters: species or system DIO mice; conditions: mouse, in vivo
Source text: (§1) […] high-fat diet-induced obese (DIO) mice were weighed. When the average weight of the mice is about 40-45 g, they are randomly assigned to Groups G2-G11 based on the body weight of the mice, with 8 mice in each group. Eight C57BL/6 mice fed with normal diet were assigned to Group G1. Each mouse in all groups was housed in a separate cage for 2-3 days to adapt to environment before grouping. During this period, the mice were adaptively caught and administrated with blank solvent daily. The day of grouping was Day 0. The Vehicle group was administrated with blank solvent (propylene glycol: 14.0 mg/mL and disodium hydrogen phosphate: 1.132 mg/mL) at pH 7.4; s.c. means subcutaneous injection; the frequency of administration QD means once a day. Such expressions may be applied to the following Examples.
Based on the assay in Example 11, the cumulative water intake of the mice was also statistically calculated and compared with the water intake of the mice in the Tirzepatide treatment group.

[2] = Body weight of DIO mice, 25 days, different administration ratios (Example 11); assay type: in vivo; conditions: 30 nmol/kg s.c. QD, Day 25
Source text: as §1
(§2) The animals were weighed before grouping (i.e. before the first administration) and every 3 days after grouping. At the end of the experiment (Day 25), the mice were fasted for 4 hours. The livers of all mice in Groups G1-G8 were collected and weighed. About 20 mg of the livers were homogenized. The homogenate was taken to measure total cholesterol (TC) and […] (TG).

[3] = Body weight of DIO mice after 28 days of administration (Example 10); assay type: in vivo, DIO male mice; conditions: 2 nmol/kg s.c. QD
Method: Eight or more C57BL/6J male mice at an age of 16 to 18 weeks and fifty-six or more DIO male mice with obesity induced by high-fat feed at an age of 16 to 18 weeks were selected. After entering the animal facility, all mice were adaptively fed for 3 days or more. They were required to adapt for 3 days before grouping. All mice were measured for body weight, body fat ratio and fasting blood glucose. Fifty-six DIO mice were randomly grouped primarily based on body weight and fasting blood glucose and secondarily based on body fat ratio. 8 C57BL/6J mice of close weekly age were assigned into the healthy control group. Each mouse in all groups was housed in a separate cage for 2-3 days to adapt to environment before grouping. During the period, the mice were adaptively caught and administrated with blank solvent daily. The day of grouping was Day 0, and the administration was continued for 28 days. […]
The body weight of each mouse was recorded every day according to the frequency of administration. Postprandial blood glucose was measured every 3 days, fasting blood glucose was measured every 7 days, and IPGTT (Intraperitoneal Glucose Tolerance Tests) was conducted once before the end point. […]

[4] = Fasting blood glucose in STZ type 2 diabetic mice after 7 days (Example 9); assay type: in vivo; conditions: for Fasting Blood Glucose Value, 0 day: 0 day (baseline)
Source text: Male mice were allowed to adapt to new environment for 1 week before treatment. The mice were divided into several groups (n=6-8/group). The individual was screened and divided into groups based on body weight and fasting blood glucose. Grouping was done by screening in a balanced manner, so as to exclude individuals that were too large or too small. A blank buffer or a test compound was subcutaneously administrated to the animals once a day. The individuals in the body weight group were weighted daily before administration, while the individuals in the fasting blood glucose group (fasting for 4 hours) were measured for their blood glucose 7 days after administration.

[5] = Body weight of DIO mice, high dosage, 21 days (Example 12); assay type: in vivo; conditions: 30 nmol/kg s.c. QD
Source text: 72 diet-induced obese (DIO) mice were weighed. (Screening and Grouping) When the average weight of the mice is about 40-45 g, they are randomly assigned to Groups G2-G11 based on the body weights of the mice, with 8 mice in each group. Eight C57BL/6 mice fed with normal diet were assigned to Group G1. Each mouse in all groups was housed in a separate cage for 2-3 days to adapt to environment before grouping. During this period, the mice were adaptively caught and administrated with blank solvent (propylene glycol: 14.0 mg/mL and disodium hydrogen phosphate: 1.132 mg/mL, pH 7.4) daily. The day of grouping was Day 0.

[6] = Liver total cholesterol (TC) and triglyceride (TG) in DIO mice (Example 11); assay type: in vivo; conditions: 30 nmol/kg s.c. QD, Day 25, fasted 4 hours
Source text: as §1, §2

[7] = target: human GIP receptor (glucose-dependent insulinotropic peptide receptor, GIPR) (human) (UniProt P48546); test: cell-based or functional assay
human GLP-1 receptor = human GLP-1 receptor (human, UniProt P43220 24-463); test: cell-based or functional assay
human GLP-1 receptor, sequence (P43220 24-463): as the sequence (P43220 24-463) above

[8] = 2.4 nmol/kg s.c. once a day, 7 days
[9] = 14.4 nmol/kg s.c. once a day, 7 days

Compound: CC[C@H](C)[C@H](NC(=O)[C@H](CO)NC(=O)[C@H](Cc1ccc(O)cc1)NC(=O)[C@H](CC(=O)O)NC(=O)[C@H](CO)NC(=O)[C@@H](NC(=O)[C@H](Cc1ccccc1)NC(=O)[C@@H](NC(=O)CNC(=O)[C@H](CCC(=O)O)NC(=O)C(C)(C)NC(=O)[C@@H](N)Cc1ccc(O)cc1)[C@@H](C)O)[C@@H](C)CC)C(=O)N[C@@H](C)C(=O)N[C@@H](CC(C)C)C(=O)N[C@@H](CC(=O)O)C(=O)N[C@@H](CCCNC(=N)N)C(=O)N[C@H](C(=O)N[C@@H](Cc1c[nH]cn1)C(=O)N[C@@H](CCC(N)=O)C(=O)N[C@@H](CCC(N)=O)C(=O)N[C@@H](CC(=O)O)C(=O)N[C@@H](Cc1ccccc1)C(=O)N[C@H](C(=O)N[C@@H](CC(N)=O)C(=O)N[C@@H](Cc1c[nH]c2ccccc12)C(=O)N[C@@H](CC(C)C)C(=O)N[C@@H](CC(C)C)C(=O)N[C@@H](C)C(=O)N[C@@H](CCC(N)=O)C(=O)N[C@@H](CCCCNC(=O)COCCOCCNC(=O)COCCOCCNC(=O)CC[C@@H](NC(=O)CCCCCCCCCCCCCCCCC(=O)O)C(=O)O)C(=O)NCC(=O)O)C(C)C)[C@@H](C)CC [Peptide 14, N-{ε-30}-18-{[(23R)-23-carboxyl-2,11,20-trioxo-10,19-diaza-4,7,13,16-tetraoxatricosyl-23-yl]amino}-18-oxooctadecanoic acid acetyl-[Aib2, L14, R16]-hGIP(1-31)] (H-Y[Aib]EGTFISDYSIALDRIHQQDFVNWLLAQK([AEEA-AEEA-d(γGlu)-C18 diacid])G-OH)
EC50 (hGLP-1R): > 100 pM | EC50 (hGIPR): 3.5 pM

Compound: CC[C@H](C)[C@H](NC(=O)[C@H](CC(C)C)NC(=O)[C@H](Cc1c[nH]c2ccccc12)NC(=O)[C@H](CCC(N)=O)NC(=O)[C@@H](NC(=O)[C@H](Cc1ccccc1)NC(=O)[C@H](C)NC(=O)[C@H](CCCCNC(=O)COCCOCCNC(=O)COCCOCCNC(=O)CC[C@H](NC(=O)CCCCCCCCCCCCCCCCCCC(=O)O)C(=O)O)NC(=O)[C@H](CCC(N)=O)NC(=O)[C@H](C)NC(=O)[C@@H](NC(=O)[C@H](CCCCN)NC(=O)[C@H](CC(=O)O)NC(=O)[C@H](CC(C)C)NC(=O)C(C)(C)NC(=O)[C@@H](NC(=O)[C@H](CO)NC(=O)[C@H](Cc1ccc(O)cc1)NC(=O)[C@H](CC(=O)O)NC(=O)[C@H](CO)NC(=O)[C@@H](NC(=O)[C@H](Cc1ccccc1)NC(=O)[C@@H](NC(=O)CNC(=O)[C@H](CCC(=O)O)NC(=O)C(C)(C)NC(=O)[C@@H](N)Cc1ccc(O)cc1)[C@@H](C)O)[C@@H](C)O)[C@@H](C)CC)[C@@H](C)CC)C(C)C)C(=O)N[C@@H](C)C(=O)NCC(=O)NCC(=O)N1CCC[C@H]1C(=O)N[C@@H](CO)C(=O)N[C@@H](CO)C(=O)NCC(=O)N[C@@H](C)C(=O)N1CCC[C@H]1C(=O)N1CCC[C@H]1C(=O)N1CCC[C@H]1C(=O)N[C@@H](CO)C(N)=O [Tirzepatide]
water intake / adverse responses [1]: significantly inhibited

Compound: N^6,26-{18-[N-(17-carboxylheptadecanoyl)-L-γ-glutamyl]-10-oxo-3,6,12,15-tetraoxa-9,18-diazaoctadecanoyl}-[8-(2-amino-2-propionic acid), 34-L-arginine] human glucagon-like peptide 1 (7-37) [GLP-1 Analog]
Body Weight [2]: 31.1 ± 0.7 g | Body Weight ([2]; listed as GLP-1 Analogs): 31.1 ± 0.7 g | Weight [3]: 40.2 ± 1.5 g | Weight Change [3]: −3.2% | Fasting Blood Glucose Value, 0 day ([4]; 2.4 nmol/kg s.c. once a day): 27.17 ± 2.01 mmol/L | Decrease of Blood Glucose, 7 days [4, 8]: 27.10 ± 13.55% | Fasting Blood Glucose Value, 7 days [4, 8]: 19.82 ± 3.79 mmol/L | Fasting Blood Glucose Value, 0 day ([4]; 14.4 nmol/kg s.c. once a day): 26.96 ± 1.60 mmol/L | Decrease of Blood Glucose, 7 days [4, 9]: 49.30 ± 17.03% | Fasting Blood Glucose Value, 7 days [4, 9]: 13.66 ± 4.94 mmol/L | blood glucose values, single drug treatment ([4]; 2.4 and 14.4 nmol/kg, 7 days): decrease in blood glucose values | Body Weight Reduction Percentage at Day 21 [5]: 24.7 ± 1.3 % | Body Weight ([5]; Day 21): 33.1 ± 0.7 g | TC [6]: 4.89 ± 0.12 mM | TG [6]: 0.91 ± 0.03 mM

EC50(pM), cell agonistic activity (cAMP, HTRF) [7]: > 100 pM | EC50(pM), cell agonistic activity (human GLP-1 receptor): 7.01 pM
Compound: hGLP-1 (7-37) (from UniProt P01275 21-180) (ligand)
